SMILES strings stand for the structures. Structures can show the parent of a compound that is named as a salt.

In the experiment the target is T1, DMT1 (Homo sapiens, UniProt P49281).
T1 sequence (P49281 1-568): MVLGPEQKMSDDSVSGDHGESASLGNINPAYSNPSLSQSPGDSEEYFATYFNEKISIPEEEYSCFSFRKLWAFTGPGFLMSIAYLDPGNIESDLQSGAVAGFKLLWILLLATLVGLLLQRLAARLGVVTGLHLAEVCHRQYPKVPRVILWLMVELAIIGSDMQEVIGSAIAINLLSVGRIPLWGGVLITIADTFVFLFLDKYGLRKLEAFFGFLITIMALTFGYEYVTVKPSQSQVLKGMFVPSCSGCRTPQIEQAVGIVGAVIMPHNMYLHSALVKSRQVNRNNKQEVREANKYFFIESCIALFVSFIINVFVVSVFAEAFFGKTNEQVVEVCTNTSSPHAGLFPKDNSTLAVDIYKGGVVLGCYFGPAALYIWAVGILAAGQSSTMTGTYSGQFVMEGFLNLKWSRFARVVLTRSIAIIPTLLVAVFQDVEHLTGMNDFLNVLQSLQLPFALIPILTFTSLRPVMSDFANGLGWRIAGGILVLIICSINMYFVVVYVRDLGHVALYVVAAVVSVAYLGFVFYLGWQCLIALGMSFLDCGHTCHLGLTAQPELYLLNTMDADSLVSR
Kind of experiment: DMT1 Activity Assay (In Vitro Assay). The format is cell-based. The conditions noted are these: read-out: IC50 Activity Level. The source says:
In particular, identification of the compounds of the invention ability to modulate, preferably to inhibit, DMT1 activity, can be assessed using a variety of in vitro and in vivo assays, for measuring uptake of reduced iron (Fe^2+). One such protocol involves the screening of chemical agents for ability to modulate the activity of DMT1 thereby identifying it as a modulating agent. The in vitro activity of DMT1 can be measured in cell based assays by either directly measuring iron flux (using a radioactively labelled iron ^55Fe) or by measuring the fluorescence of a cell permeable iron fluorophore such as calcein. Stable cell lines overexpressing DMT1 are exposed to ^55Fe or loaded with calcein and then compound is applied. […] Alternatively, in another format electrophysiological techniques can be used to measure the current or iron or other metals traversing the cell membrane with DMT1 in a Xenopus oocyte or other cell based system (Gunshin et al., Nature, 1997, 31; 388(6641):482-8).
This example discloses various in vitro assay for testing and profiling test agents against DMT1 stably expressed in cells of either an endogenous or recombinant origin. These assays can use stable cell lines overexpressing DMT1 or intestinal cells and intestinal tissue expressing endogenous DMT1. DMT1 function could also be assessed in other cell types that express DMT1. Of greatest relevance would be the erythrocytes (e.g. K562 cells) or hepatocytes (e.g. […]).
DMT1 function can be assessed in a number of ways, including monitoring fluorescence changes of an iron fluorophore (e.g. calcein), monitoring uptake of radiolabelled iron (55Fe or ^59Fe) (Picard et al., J. Biol. Chem., 2000, 275(46):35738-45 and Wetli et al., Chem. Biol. 2006 September; 13(9):965-72), or by assessing the current or transport of iron and other metals into the cells or tissues using standard electrophysiological techniques (Gunshin et al., Nature, 1997, 388(6641):482-8.).
Variations of these assays involve alterations of incubation times, the iron status of the cells and tissues (which may be modulated by chemical chelators or by harvesting from iron deficient animals), the metal cation detected and the pH of the reaction can generally be made by conventional techniques known to those skilled in the art.
Take `N=C(N)SCc1ccccc1Sc1ccc(C(F)(F)F)cc1CSC(=N)N` [Example 1.27, 2-[2-(2-carbamimidoylsulfanylmethylphenylsulfanyl)-5-(trifluoromethyl)benzyl]isothiourea dihydrobromide]: the IC50 (commonly the concentration needed to halve the response being measured) was not below 1000 nM.
For `CN(c1ccccc1CSC(=N)N)c1ccccc1CSC(=N)N` [Example 1.28, 2,2′-(methylazanediyl)bis(2,1-phenylene)bis-(methylene)dicarbamimidothioate trihydrobromide], the 50% inhibitory concentration (IC50) lay in the range of 100 to 1000 nM.
For `CNC(=N)SCc1ccccc1Sc1ccccc1CSC(=N)NC` [Example 1.29, 2-[2-(2-methylcarbamimidoylsulfanylmethylphenylsulfanyl)benzyl]-methylisothiourea dihydrobromide], the IC50 is not below 1000 nM.
Next, `CS(=O)(=O)c1ccc(Sc2ccc(F)cc2CSC(=N)N)c(CSC(=N)N)c1` [Example 1.30, 2-[2-(2-carbamimidoylsulfanylmethyl-4-fluorophenylsulfanyl)-5-(methylsulfonyl)benzyl]isothiourea dihydrobromide]: 100 to 1000 nM; `N=C(N)SCCc1ccccc1Sc1ccccc1CCSC(=N)N` [Example 1.31, dihydrobromide]: not below 1000 nM; `N=C(N)SCc1cc(F)ccc1Sc1ccc(F)cc1CSC(=N)N` [Example 2, 2-[2-(2-carbamimidoylsulfanylmethyl-4-fluoro-phenylsulfanyl)-5-fluoro-benzyl]-isothiourea dihydrobromide]: 100 to 1000 nM.
Take `N=C(N)SCc1cc(F)ccc1Sc1ccc([N+](=O)[O-])cc1CSC(=N)N` [Example 2.1, 2-{[2-({[amino(imino)methyl]thio}methyl)-4-fluorophenyl]thio}-5-nitrobenzyl imidothiocarbamate dihydrobromide]: the IC50 lay in the range of 10 to 100 nM.
With `CN(C)S(=O)(=O)c1ccc(Sc2ccc(F)cc2CSC(=N)N)c(CSC(=N)N)c1` [Example 2.2, 2-({2-({[amino(imino)methyl]thio}methyl)-4-[(dimethylamino)sulfonyl]phenyl}thio)-5-fluorobenzyl imidothiocarbamate dihydrobromide], the half-inhibitory concentration (IC50) lay within 100 to 1000 nM.
Next, `N=C(N)SCc1ccccc1S(=O)(=O)c1ccccc1CSC(=N)N` [Example 2.3, 2-[2-(2-carbamimidoylsulfanylmethylphenylsulfonyl)benzyl]-isothiourea dihydrobromide]: not below 1000 nM; `N=C(N)SCc1cc(F)ccc1S(=O)(=O)c1ccc(F)cc1CSC(=N)N` [Example 2.4, 2-[2-(2-carbamimidoylsulfanylmethyl-4-fluorophenylsulfonyl)-5-fluorobenzyl]isothiourea dihydrobromide]: not below 1000 nM; `N=C(N)SCc1cc(F)ccc1Sc1cscc1CSC(=N)N` [Example 2.5, (4-{[2-({[amino(imino)methyl]thio}methyl)-4-fluorophenyl]thio}-3-thienyl)methyl imidothiocarbamate dihydrochloride]: 100 to 1000 nM.
To `N=C(N)SCc1cc(F)ccc1Sc1sccc1CSC(=N)N` [Example 2.6, (2-{[2-({[amino(imino)methyl]thio}methyl)-4-fluorophenyl]thio}-3-thienyl)methyl imidothiocarbamate dihydrochloride] belongs not below 1000 nM; to `CS(=O)(=O)c1ccc(CSC(=N)N)c(Sc2ccc(F)cc2CSC(=N)N)c1` [Example 2.7, 2-{[2-({[amino(imino)methyl]thio}methyl)-4-fluorophenyl]thio}-4-(methylsulfonyl)benzyl imidothiocarbamate dihydrochloride], not below 1000 nM; to `N#Cc1ccc(Sc2ccc(Cl)cc2CSC(=N)N)c(CSC(=N)N)c1` [Example 2.8, 2-{[2-({[amino(imino)methyl]thio}methyl)-4-chlorophenyl]thio}-5-cyanobenzyl imidothiocarbamate dihydrobromide], not below 1000 nM.
With `N=C(N)SCc1ccc(Cl)cc1Oc1cc([N+](=O)[O-])ccc1CSC(=N)N` [Example 2.9, 2-[2-({[amino(imino)methyl]thio}methyl)-5-chlorophenoxy]-4-nitrobenzyl imidothiocarbamate dihydrobromide], the IC50 was not below 1000 nM.
In the case of `N=C(N)SCc1cc(F)ccc1Oc1cccc(Cl)c1CSC(=N)N` [Example 2.10, 2-[2-(2-carbamimidoylsulfanylmethyl-3-chlorophenoxy)-5-fluorobenzyl]isothiourea dihydrobromide], the IC50 was not below 1000 nM.
On to `N=C(N)SCc1cc(F)ccc1Oc1ccc(Cl)cc1CSC(=N)N` [Example 2.11, 2-[2-(2-carbamimidoylsulfanylmethyl-4-chlorophenoxy)-5-fluorobenzyl]isothiourea dihydrobromide], for which the IC50 lay in the range of 100 to 1000 nM.
For the compound `N=C(N)SCc1cc(F)ccc1Oc1cc(F)ccc1CSC(=N)N` [Example 2.12, 2-[2-(2-carbamimidoylsulfanylmethyl-5-fluorophenoxy)-5-fluorobenzyl]isothiourea dihydrobromide], the IC50 was in the range of 100 to 1000 nM.
For `N=C(N)SCc1cc(F)ccc1Oc1ccc(F)cc1CSC(=N)N` [Example 2.13, 2-[2-(2-carbamimidoylsulfanylmethyl-4-fluorophenoxy)-5-fluorobenzyl]isothiourea dihydrobromide], the IC50 is 100 to 1000 nM.
To `N=C(N)SCc1cc(F)ccc1Oc1ccc([N+](=O)[O-])cc1CSC(=N)N` [Example 2.14, 2-[2-({[amino(imino)methyl]thio}methyl)-4-fluorophenoxy]-5-nitrobenzyl imidothiocarbamate dihydrobromide] belongs 100 to 1000 nM; to `N=C(N)SCc1ccccc1Oc1ccccc1CSC(=N)N` [Example 2.15, 2-[2-(2-carbamimidoylsulfanylmethylphenoxy)benzyl]isothiourea dihydrobromide], not below 1000 nM; to `N=C(N)SCc1ccccc1Oc1ccc(Cl)cc1CSC(=N)N` [Example 2.16, 2-[2-({[amino(imino)methyl]thio}methyl)-4-chlorophenoxy]benzyl imidothiocarbamate dihydrobromide], not below 1000 nM.
To `N=C(N)SCc1ccccc1Oc1cccc(Cl)c1CSC(=N)N` [Example 2.17, 2-[2-({[amino(imino)methyl]thio}methyl)-3-chlorophenoxy]benzyl imidothiocarbamate dihydrobromide] belongs not below 1000 nM; to `N=C(N)SCc1ccccc1Oc1cc(Cl)ccc1CSC(=N)N` [Example 2.18, 2-[2-({[amino(imino)methyl]thio}methyl)-5-chlorophenoxy]benzyl imidothiocarbamate dihydrobromide], not below 1000 nM; to `N=C(N)SCc1cc([N+](=O)[O-])ccc1Oc1cc(Cl)ccc1CSC(=N)N` [Example 2.19, 2-[2-({[amino(imino)methyl]thio}methyl)-5-chlorophenoxy]-5-nitrobenzyl imidothiocarbamate dihydrobromide], not below 1000 nM.
Next, `N=C(N)SCc1cc(Cl)ccc1Oc1ccc([N+](=O)[O-])cc1CSC(=N)N` [Example 2.20, 2-[2-({[amino(imino)methyl]thio}methyl)-4-chlorophenoxy]-5-nitrobenzyl imidothiocarbamate dihydrobromide]: not below 1000 nM; `N=C(N)SCc1ccccc1Oc1ccc(F)cc1CSC(=N)N` [Example 2.21, 2-[2-({[amino(imino)methyl]thio}methyl)-4-fluorophenoxy]benzyl imidothiocarbamate dihydrobromide]: 100 to 1000 nM; `N=C(N)SCc1cccc(CSC(=N)N)c1-c1c(CSC(=N)N)cccc1CSC(=N)N` [Example 2.23, biphenyl-2,2′-6,6′-tetrayltetrakis(methylene)tetracarbamimidothioate tetrahydrobromide]: not below 1000 nM.
Turning to `COC(=O)c1cccc(CSC(=N)N)c1-c1c(CSC(=N)N)cccc1C(=O)OC` [Example 2.24, dimethyl 6,6′-bis(carbamimidoylthiomethyl)biphenyl-2,2′-dicarboxylate dihydrobromide], the IC50 is not below 1000 nM.

The values are drawn from patent US20080234384A1, “BIARYL AND BIHETEROARYL COMPOUNDS USEFUL IN TREATING IRON DISORDERS” (XENON PHARMACEUTICALS INC., priority 2007, published 2008).
